In one data set the test system is ER negative HeLa cells. The conditions noted are these: 10-20 μM; cited from earlier work.
Data set [1] concerns ERα negative MDA-MB-231 cells. Put plainly: MDA-MB-231 cell growth / toxicity assay (MTS). It counts as cell-based, human. As to the method:
ERα negative MDA-MB-231 human breast cancer cells were used to test for generalized toxicity of the test compounds. To parallel the reporter gene assays in stably transfected T47D breast cancer cells, 5,000 MDA-MB-231 cells per well were plated in a 96 well plate. The cells were maintained in the medium described above for the T47D cells. One day after plating, the same concentration of test compound used in the reporter gene assay (up to 30 μM) was added. After 24 h the MTS assay was carried out as described above. A more stringent toxicity assay parallels the assay for inhibition of estrogen-dependent growth of BG-1 cells. 250 MDA-MB-231 cells were plated per well and maintained and assayed as described for the BG-1 cells. Several compounds without detectable toxicity in the 24-h assay inhibited MDA-MB-231 cell growth in the 5-6 day assay.
Assays for Cell Growth and Viability. Cells were maintained in the media listed above containing CD-treated serum for at least 4 days prior to the experiment. To minimize cell aggregation, MCF-7 cells were harvested in 10 mM Hepes, pH 7.4, 1 mM EDTA. Other cell lines were harvested in trypsin-EDTA. 1,000 cells were plated into each well of a 96 well plate. For slow growing ZR-75 cells, 2,000 cells were plated/well. The cells were maintained in medium containing CD-treated serum for 24 hours. At 24 hours the medium was changed and E2 and DMSO vehicle or TPSF in DMSO was added. The medium was replaced after 2 days (except for BT474 cells whose medium was not changed). After 4 days viable cells were determined using a cell viability test, Promega CellTiter 96 Aqueous One Solution Cell Proliferation Assay (MTS) (Promega, Wis.).

A further data set deals with T1, GR (Rattus norvegicus, UniProt P06536).
T1 construct: expressed in transfected cells; host or cells: T47D/A1-2
T1 sequence (P06536 1-795): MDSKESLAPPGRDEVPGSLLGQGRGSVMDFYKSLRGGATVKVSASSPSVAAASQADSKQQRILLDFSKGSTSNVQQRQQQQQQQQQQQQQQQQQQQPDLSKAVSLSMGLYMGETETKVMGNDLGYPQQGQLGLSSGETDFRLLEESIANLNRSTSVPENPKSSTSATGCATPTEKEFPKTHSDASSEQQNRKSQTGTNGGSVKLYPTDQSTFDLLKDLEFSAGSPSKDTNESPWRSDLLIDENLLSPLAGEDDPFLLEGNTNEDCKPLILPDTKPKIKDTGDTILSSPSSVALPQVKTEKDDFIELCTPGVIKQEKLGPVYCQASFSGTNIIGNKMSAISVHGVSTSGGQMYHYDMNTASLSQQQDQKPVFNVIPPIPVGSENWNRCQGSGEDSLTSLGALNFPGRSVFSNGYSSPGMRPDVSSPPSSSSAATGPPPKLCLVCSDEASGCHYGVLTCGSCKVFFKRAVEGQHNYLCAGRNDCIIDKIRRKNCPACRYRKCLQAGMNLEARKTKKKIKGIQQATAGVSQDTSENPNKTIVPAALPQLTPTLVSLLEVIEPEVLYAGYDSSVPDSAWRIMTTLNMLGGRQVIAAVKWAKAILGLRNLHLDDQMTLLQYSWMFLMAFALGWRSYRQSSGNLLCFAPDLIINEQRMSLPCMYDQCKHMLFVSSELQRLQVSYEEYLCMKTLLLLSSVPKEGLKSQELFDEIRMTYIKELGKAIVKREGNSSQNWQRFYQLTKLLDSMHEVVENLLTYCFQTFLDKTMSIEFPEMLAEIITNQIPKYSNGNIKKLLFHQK
Put plainly: GR transactivation, MMTV-luciferase reporter in T47D cells. Format: cell-based, human. As to the method:
The T47D-KBluc cells stably express an (ERE)3-luciferase reporter gene (38). Cells were maintained in phenol red-free RPMI 1640 with 2 mM L-glutamine, 1.5 g/l sodium bicarbonate, 4.5 g/l glucose, 10 mM Hepes, pH 7.5, 1 mM sodium pyruvate, 10% FBS (Atlanta Biological, Atlanta, Ga.) and antibiotics. Four days before E2 induction, the cells were switched to the above medium, with 10% 2× charcoal-dextran-treated calf serum instead of FBS. 200,000 cells/well were transferred to each well of a 24-well plate. After 24 h the indicated concentrations of the test compounds were added in DMSO and E2 was added to 20 pM. After 24 h cells were washed once in PBS, and 150 μl 1× Passive Lysis Buffer (Promega, Madison Wis.) was used to lyse the cells. Luciferase activity was determined using firefly luciferase reagents from Promega (Madison, Wis.). T47D cells stably transfected to express GR and a mouse mammary tumor virus luciferase reporter that responds to liganded GR and PR were maintained and assayed in medium containing 5 nM progesterone for PR assays, or 2.5 nM dexamethsaone for GR assays, essentially as described (39).
(§1) Reporter Gene Assays. TPSF was identified by reporter gene assays comparing the ability of ˜200 compounds structurally related to TPBM (see reference 19) to inhibit transcription of a stably transfected (ERE)3-luciferase reporter gene in T47D-KBluc breast cancer cells (20). AR was assayed in stably transfected HeLa cells and GR was assayed in stably transfected T47D cells maintained as described above. Four days before each experiment the cells were switched to medium containing CD-treated serum as described above. The HeLaAR cells were plated at 100,000 cells/well and the T47D/A1-2 and T47D-KBluc cells were plated at 200,000 cells/well in 1 ml of their respective media in 24-well plates. After 24 hours the indicated concentrations of E2, dihydrotestosterone (DHT) or dexamethasone (Dex) and DMSO vehicle, with or without TPSF, were added to each well. After 24 hours, the cells were washed once in phosphate buffered saline and lysed using 100 μl of 1× Passive Lysis Buffer (Promega, Madison Wis.). Luciferase activity was determined using BrightGlo firefly luciferase reagent from Promega (Madison, Wis.).

A further data set addresses T2, ERα (Homo sapiens, UniProt P03372).
T2 sequence (P03372 1-595): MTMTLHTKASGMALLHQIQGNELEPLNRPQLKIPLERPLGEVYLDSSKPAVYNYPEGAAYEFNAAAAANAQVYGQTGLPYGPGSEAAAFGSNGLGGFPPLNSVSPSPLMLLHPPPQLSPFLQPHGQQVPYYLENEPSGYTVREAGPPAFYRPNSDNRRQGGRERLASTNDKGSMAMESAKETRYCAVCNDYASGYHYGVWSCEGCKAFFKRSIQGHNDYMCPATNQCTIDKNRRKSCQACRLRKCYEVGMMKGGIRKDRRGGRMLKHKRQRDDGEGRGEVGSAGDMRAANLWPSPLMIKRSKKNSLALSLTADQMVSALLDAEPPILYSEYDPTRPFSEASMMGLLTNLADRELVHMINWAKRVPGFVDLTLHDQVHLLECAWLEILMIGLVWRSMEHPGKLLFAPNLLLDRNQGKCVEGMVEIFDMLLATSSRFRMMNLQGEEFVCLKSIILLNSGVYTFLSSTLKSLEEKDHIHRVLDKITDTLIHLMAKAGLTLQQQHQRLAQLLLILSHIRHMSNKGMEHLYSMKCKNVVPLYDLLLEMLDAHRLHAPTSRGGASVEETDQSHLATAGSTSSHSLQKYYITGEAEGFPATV
As to the kind of experiment: (ERE)3-luciferase reporter gene assay in T47D-KBluc cells. Format: cell-based. Details: Using a stably transfected breast cancer cell line that expresses endogenous ERα; endogenous in cells; host or cells: T47D-KBluc. As to the method:
The T47D-KBluc cells stably express an (ERE)3-luciferase reporter gene (38). […] Four days before E2 induction, the cells were switched to the above medium, with 10% 2× charcoal-dextran-treated calf serum instead of FBS. 200,000 cells/well were transferred to each well of a 24-well plate. After 24 h the indicated concentrations of the test compounds were added in DMSO and E2 was added to 20 pM. After 24 h cells were washed once in PBS, and 150 μl 1× Passive Lysis Buffer (Promega, Madison Wis.) was used to lyse the cells. Luciferase activity was determined using firefly luciferase reagents from Promega (Madison, Wis.).
as §1, with “TPSF was identified by reporter gene assays comparing the ability of ˜200 compounds structurally related to TPBM (see reference 19) to inhibit transcription of a stably transfected (ERE)3-luciferase reporter gene in T47D-KBluc breast cancer cells (20).” left out

Data set [2] in a line: Short-term mouse toxicity study. Format: in vivo. The conditions noted are these: up to 400 mg/kg.
The next data set relates to ZR-75 cells. The note with it: 5 μM; see Wang 2006; cited from earlier work.
The next data set concerns BT474 cells. The note with it: 5 μM; see Wang 2006; cited from earlier work.

Regarding “4-hydroxytamoxifen [OHT, reference compound]”, the “effect in ER negative HeLa cells” value in the data set with ER negative HeLa cells is recorded as “induce caspase-dependent apoptosis”. In addition, the “effect on MDA-MB-231 cells” value was “killed many” in data set [1] (10 μM) and “all the cells were killed” in data set [1] (20 μM).
With `Cn1c(=O)c2[nH]c(Cc3ccc4ccccc4c3)nc2n(C)c1=O` [Compound 14147], the “effect on GR” value on GR is “virtually no effect”.
`Cn1c(=S)c2[nH]c(SCCCc3ccccc3)nc2n(C)c1=O` [Compound 99676]: the “potency as ERα inhibitor relative to TPSF (less potent)” value on ERα is recorded as approximately 13 fold. The 50% inhibitory concentration (IC50) at ERα (T47D (ERE)3-Luc cells, 24 h, FIG. 13, E2 concentration for 99676 not stated, read-out: IC50 for inhibition of ERα-mediated gene expression) was found to be 9 µM.
As to `CCCCCCCc1nc2c([nH]1)c(=O)n(C)c(=O)n2C` [Compound 101794], the “toxicity in a short-term mouse study” value in data set [2] was “no toxicity”.
On to `O=C(c1ccc(OCCN2CCCCC2)cc1)c1c(-c2ccc(O)cc2)sc2cc(O)ccc12` [raloxifene], for which the “effect in ER negative HeLa cells” value with ER negative HeLa cells is given as “induce caspase-dependent apoptosis”.
Turning to disulfide benzamide [DIBA], the “inhibition of growth of ZR-75 cells” value in the data set with ZR-75 cells is approximately 20%. For the same molecule, the “effect on growth of tamoxifen-resistant BT474 cells” value in the data set with BT474 cells is on record as “did not inhibit”.

Source of the values: patent US8871751B2, “Compositions and methods relating to nuclear hormone and steroid hormone receptors including inhibitors of estrogen receptor alpha-mediated gene expression and inhibition of breast cancer” (The Board of Trustees of the University of Illinois, priority 2008, dated 2014).
